Test [1] concerns the target T1, Dual specificity protein kinase CLK1 (Homo sapiens, UniProt P49759). Kind of test: Inhibition of CLK1 (unknown origin) by NanoBRET cellular target engagement assay.
In test [2] the target is T2, Dual specificity protein kinase CLK3 (Homo sapiens, UniProt P49761). As to the kind of experiment: Inhibition of CLK3 (unknown origin) by NanoBRET cellular target engagement assay. For orientation: Bioluminescence resonance energy transfer reports proximity on the nanometre scale.
In test [3] the target is T3, Dual specificity protein kinase CLK2 (Homo sapiens, UniProt P49760). Kind of test: Inhibition of CLK2 (unknown origin) by NanoBRET cellular target engagement assay.
Test [4] has as its target T4, Dual specificity protein kinase CLK4 (Homo sapiens, UniProt Q9HAZ1). Kind of test: Inhibition of CLK4 (unknown origin) by NanoBRET cellular target engagement assay.
Test [5] addresses Mitogen-activated protein kinase kinase kinase 9 (Homo sapiens, UniProt P80192). As to the kind of experiment: Inhibition of MLK1 (unknown origin) by NanoBRET cellular target engagement assay.
Test [6] addresses T5, Dual specificity tyrosine-phosphorylation-regulated kinase 2 (Homo sapiens, UniProt Q92630).
T5 sequence (Q92630 whole entry): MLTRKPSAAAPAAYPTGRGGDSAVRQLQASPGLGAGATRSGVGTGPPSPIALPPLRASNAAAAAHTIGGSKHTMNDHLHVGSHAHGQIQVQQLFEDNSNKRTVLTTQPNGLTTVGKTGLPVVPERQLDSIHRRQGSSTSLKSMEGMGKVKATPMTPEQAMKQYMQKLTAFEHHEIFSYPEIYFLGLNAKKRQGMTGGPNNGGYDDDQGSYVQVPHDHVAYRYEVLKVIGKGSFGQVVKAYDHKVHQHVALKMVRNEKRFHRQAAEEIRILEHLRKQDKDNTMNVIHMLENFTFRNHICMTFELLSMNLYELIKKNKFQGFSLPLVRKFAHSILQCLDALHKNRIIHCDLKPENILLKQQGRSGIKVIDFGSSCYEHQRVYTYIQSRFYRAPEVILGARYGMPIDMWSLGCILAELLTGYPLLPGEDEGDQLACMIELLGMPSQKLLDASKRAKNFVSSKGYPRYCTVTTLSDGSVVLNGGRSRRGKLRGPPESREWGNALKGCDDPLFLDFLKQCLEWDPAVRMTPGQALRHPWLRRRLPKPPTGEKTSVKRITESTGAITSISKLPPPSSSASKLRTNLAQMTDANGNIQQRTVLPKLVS
Kind of test: Inhibition of DYRK2 (unknown origin) by NanoBRET cellular target engagement assay.

For test [7], the target named is Mitogen-activated protein kinase kinase kinase 10 (Homo sapiens, UniProt Q02779). As to the kind of experiment: Inhibition of MLK2 (unknown origin) by NanoBRET cellular target engagement assay.
In test [8] the target is T6, Homeodomain-interacting protein kinase 2 (Homo sapiens, UniProt Q9H2X6). As to the kind of experiment: Inhibition of HIPK2 (unknown origin) by selectscreen kinase assay.
Another test deals with MCF7. Kind of test: Cytotoxicity against human MCF7 cells assessed as reduction in cell viability incubated for 48 hrs by CyQuant assay. The class given is functional, cell-based. The following applies: MCF7, 48 h.
In test [9] the target is T4, Dual specificity protein kinase CLK4. As to the kind of experiment: Inhibition of human recombinant CLK4 using YRRAAVPPSPSLS substrate by radiometric scintillation assay.
For test [10], the target named is T6, Homeodomain-interacting protein kinase 2. As to the kind of experiment: Inhibition of human recombinant HIPK2 using myelin substrate by radiometric scintillation assay.
Test [11] concerns the target Cyclin-dependent kinase-like 3 (Homo sapiens, UniProt Q8IVW4). As to the kind of experiment: Inhibition of CDKL3 (unknown origin) by NanoBRET cellular target engagement assay.
Test [12] deals with T7, Dual specificity tyrosine-phosphorylation-regulated kinase 1A (Homo sapiens, UniProt Q13627). Kind of test: Inhibition of DYRK1A (unknown origin) by NanoBRET cellular target engagement assay.
In test [13] the target is Mitogen-activated protein kinase kinase kinase 11 (Homo sapiens, UniProt Q16584). Kind of test: Inhibition of MLK3 (unknown origin) by NanoBRET cellular target engagement assay.
Test [14] has as its target T8, Homeodomain-interacting protein kinase 1 (Homo sapiens, UniProt Q86Z02). Kind of test: Inhibition of human recombinant HIPK1 using myelin substrate by radiometric scintillation assay.
Test [15] addresses T2, Dual specificity protein kinase CLK3. Kind of test: Inhibition of human full length recombinant CLK3 using ERMRPRKRQGSVR substrate by radiometric scintillation assay.
Test [16] has as its target T5, Dual specificity tyrosine-phosphorylation-regulated kinase 2. Kind of test: Inhibition of human full length recombinant DYRK2 using casein substrate by radiometric scintillation assay.
The target in test [17] is T9, Homeodomain-interacting protein kinase 3 (Homo sapiens, UniProt Q9H422). Kind of test: Inhibition of human recombinant HIPK3 using myelin substrate by radiometric scintillation assay.
Test [18] has as its target T10, Dual specificity tyrosine-phosphorylation-regulated kinase 1B (Homo sapiens, UniProt Q9Y463). As to the kind of experiment: Inhibition of DYRK1B (unknown origin) by NanoBRET cellular target engagement assay.
Test [19] concerns the target T1, Dual specificity protein kinase CLK1. As to the kind of experiment: Inhibition of human recombinant CLK1 using ERMRPRKRQGSVR substrate by radiometric scintillation assay.
Test [20] addresses T3, Dual specificity protein kinase CLK2. As to the kind of experiment: Inhibition of human recombinant CLK2 using YRRAAVPPSPSLSR substrate by radiometric scintillation assay.
Test [21] concerns the target T7, Dual specificity tyrosine-phosphorylation-regulated kinase 1A. Kind of test: Inhibition of human full length recombinant DYRK1A using RRRFRPASPLRGPP substrate by radiometric scintillation assay.
Test [22] concerns the target T10, Dual specificity tyrosine-phosphorylation-regulated kinase 1B. As to the kind of experiment: Inhibition of human full length recombinant DYRK1B using RRRFRPASPLRGPP substrate by radiometric scintillation assay.
Test [23] concerns the target T6, Homeodomain-interacting protein kinase 2. Kind of test: Inhibition of HIPK2 (unknown origin).
Test [24] has as its target T9, Homeodomain-interacting protein kinase 3. Kind of test: Inhibition of HIPK3 (unknown origin).
Test [25] concerns the target T8, Homeodomain-interacting protein kinase 1. Kind of test: Inhibition of HIPK1 (unknown origin).
The target in test [26] is T11, Homeodomain-interacting protein kinase 4 (Homo sapiens, UniProt Q8NE63).
T11 sequence (Q8NE63 whole entry): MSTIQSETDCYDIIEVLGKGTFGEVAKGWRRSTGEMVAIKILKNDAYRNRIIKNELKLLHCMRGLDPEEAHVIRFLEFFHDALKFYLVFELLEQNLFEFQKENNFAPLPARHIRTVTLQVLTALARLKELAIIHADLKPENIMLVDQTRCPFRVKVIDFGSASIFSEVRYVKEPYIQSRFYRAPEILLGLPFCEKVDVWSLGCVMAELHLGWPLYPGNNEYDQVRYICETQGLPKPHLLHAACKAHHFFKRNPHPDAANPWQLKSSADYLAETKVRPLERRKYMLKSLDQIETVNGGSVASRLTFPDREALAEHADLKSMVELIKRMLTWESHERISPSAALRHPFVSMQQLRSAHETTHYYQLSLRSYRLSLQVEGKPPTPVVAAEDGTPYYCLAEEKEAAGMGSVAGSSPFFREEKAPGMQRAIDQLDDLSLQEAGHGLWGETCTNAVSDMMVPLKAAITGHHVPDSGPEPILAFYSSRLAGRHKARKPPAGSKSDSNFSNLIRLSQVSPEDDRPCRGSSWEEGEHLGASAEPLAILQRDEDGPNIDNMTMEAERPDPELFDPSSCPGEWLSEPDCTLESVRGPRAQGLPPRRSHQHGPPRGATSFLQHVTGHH
As to the kind of experiment: Inhibition of HIPK4 (unknown origin).

Where only a bound is given, the exact number is not on record here.

Our source for the IC50 values is ChEMBL document CHEMBL4732242 (Eur J Med Chem, 2021).

The IC50 is the midpoint of a concentration-inhibition curve.

Mitogen-activated protein kinase kinase kinase 10, sequence (Q02779 whole entry): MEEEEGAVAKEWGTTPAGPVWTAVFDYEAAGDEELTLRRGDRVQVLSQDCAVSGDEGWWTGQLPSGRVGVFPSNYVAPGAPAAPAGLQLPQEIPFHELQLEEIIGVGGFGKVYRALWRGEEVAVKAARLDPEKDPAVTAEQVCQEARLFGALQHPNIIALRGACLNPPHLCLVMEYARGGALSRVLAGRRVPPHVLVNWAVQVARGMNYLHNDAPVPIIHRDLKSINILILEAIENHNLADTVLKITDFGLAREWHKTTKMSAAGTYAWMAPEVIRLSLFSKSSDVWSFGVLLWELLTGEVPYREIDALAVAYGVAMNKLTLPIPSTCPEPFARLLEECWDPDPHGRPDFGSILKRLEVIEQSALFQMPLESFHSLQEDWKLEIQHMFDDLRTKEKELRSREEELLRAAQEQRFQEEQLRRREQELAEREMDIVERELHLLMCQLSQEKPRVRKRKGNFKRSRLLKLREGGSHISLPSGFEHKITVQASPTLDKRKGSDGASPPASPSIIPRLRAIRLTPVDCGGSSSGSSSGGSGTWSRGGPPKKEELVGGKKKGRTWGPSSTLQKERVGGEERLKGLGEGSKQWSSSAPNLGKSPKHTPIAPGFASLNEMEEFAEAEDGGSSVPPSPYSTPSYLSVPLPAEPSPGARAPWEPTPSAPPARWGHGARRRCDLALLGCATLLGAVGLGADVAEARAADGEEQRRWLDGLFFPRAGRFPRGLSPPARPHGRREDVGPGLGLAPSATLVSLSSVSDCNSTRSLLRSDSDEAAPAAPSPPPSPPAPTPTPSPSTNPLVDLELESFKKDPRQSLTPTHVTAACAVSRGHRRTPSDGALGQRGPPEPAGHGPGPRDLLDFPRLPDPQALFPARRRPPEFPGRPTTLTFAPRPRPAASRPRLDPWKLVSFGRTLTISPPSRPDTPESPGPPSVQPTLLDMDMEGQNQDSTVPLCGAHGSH
T3 sequence (P49760 whole entry): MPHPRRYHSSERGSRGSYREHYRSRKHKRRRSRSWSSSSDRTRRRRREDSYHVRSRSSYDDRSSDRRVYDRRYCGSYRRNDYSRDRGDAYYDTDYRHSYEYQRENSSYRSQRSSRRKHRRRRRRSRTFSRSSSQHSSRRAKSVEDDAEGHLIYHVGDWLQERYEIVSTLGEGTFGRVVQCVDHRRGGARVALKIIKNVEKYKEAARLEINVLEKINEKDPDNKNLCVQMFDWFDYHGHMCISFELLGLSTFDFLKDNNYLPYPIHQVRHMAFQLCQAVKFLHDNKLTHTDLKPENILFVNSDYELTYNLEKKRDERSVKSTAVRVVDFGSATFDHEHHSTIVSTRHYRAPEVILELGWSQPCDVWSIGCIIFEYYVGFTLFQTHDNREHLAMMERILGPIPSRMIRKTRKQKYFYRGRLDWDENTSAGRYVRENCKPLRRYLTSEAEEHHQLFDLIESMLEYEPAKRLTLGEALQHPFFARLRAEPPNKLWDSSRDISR
T6 sequence (Q9H2X6 whole entry): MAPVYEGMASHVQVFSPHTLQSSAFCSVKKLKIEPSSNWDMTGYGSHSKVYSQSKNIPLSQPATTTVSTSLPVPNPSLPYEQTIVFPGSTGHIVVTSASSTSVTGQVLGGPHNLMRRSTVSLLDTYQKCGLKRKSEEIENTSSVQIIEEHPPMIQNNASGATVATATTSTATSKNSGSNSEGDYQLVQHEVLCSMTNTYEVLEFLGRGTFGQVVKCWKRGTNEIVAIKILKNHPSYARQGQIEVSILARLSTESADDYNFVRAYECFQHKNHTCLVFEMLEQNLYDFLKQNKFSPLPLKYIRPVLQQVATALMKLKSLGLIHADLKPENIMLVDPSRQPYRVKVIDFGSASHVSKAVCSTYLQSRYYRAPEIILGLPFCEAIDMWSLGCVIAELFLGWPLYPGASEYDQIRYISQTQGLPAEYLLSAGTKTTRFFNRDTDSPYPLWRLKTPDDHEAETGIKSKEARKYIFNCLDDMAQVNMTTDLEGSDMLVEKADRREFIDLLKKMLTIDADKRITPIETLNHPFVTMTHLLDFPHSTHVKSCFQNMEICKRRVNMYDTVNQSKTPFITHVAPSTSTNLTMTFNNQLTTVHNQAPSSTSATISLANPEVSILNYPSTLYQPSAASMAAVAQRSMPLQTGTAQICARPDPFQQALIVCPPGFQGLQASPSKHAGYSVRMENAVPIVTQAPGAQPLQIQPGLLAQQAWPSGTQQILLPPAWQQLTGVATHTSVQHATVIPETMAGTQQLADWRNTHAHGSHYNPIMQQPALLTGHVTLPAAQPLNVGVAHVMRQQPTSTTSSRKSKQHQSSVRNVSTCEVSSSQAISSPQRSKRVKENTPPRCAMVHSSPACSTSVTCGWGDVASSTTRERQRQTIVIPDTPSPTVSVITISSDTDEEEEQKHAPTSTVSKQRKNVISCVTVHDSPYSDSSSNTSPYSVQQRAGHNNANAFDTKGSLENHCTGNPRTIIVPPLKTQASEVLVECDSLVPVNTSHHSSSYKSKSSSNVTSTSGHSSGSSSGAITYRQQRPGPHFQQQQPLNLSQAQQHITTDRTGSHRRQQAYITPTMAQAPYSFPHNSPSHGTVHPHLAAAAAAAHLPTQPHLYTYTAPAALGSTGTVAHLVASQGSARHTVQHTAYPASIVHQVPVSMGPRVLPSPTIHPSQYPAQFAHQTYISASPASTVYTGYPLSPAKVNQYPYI
T10 sequence (Q9Y463 whole entry): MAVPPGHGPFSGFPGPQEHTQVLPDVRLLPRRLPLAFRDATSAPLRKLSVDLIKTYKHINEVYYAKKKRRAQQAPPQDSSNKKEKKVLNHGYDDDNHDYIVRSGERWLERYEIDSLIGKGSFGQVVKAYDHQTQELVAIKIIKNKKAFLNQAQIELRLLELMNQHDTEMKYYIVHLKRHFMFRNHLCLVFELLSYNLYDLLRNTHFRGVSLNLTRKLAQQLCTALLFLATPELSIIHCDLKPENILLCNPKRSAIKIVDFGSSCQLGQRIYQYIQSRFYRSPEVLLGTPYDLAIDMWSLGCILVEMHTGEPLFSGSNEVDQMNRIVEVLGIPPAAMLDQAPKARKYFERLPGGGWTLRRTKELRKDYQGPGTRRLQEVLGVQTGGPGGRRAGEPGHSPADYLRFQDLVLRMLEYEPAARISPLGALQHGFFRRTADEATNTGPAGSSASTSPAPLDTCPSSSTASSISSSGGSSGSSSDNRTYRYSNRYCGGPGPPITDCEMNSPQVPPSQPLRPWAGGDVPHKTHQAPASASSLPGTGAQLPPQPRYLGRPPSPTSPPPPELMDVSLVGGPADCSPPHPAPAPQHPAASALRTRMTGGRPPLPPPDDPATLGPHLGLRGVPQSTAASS
T8 sequence (Q86Z02 whole entry): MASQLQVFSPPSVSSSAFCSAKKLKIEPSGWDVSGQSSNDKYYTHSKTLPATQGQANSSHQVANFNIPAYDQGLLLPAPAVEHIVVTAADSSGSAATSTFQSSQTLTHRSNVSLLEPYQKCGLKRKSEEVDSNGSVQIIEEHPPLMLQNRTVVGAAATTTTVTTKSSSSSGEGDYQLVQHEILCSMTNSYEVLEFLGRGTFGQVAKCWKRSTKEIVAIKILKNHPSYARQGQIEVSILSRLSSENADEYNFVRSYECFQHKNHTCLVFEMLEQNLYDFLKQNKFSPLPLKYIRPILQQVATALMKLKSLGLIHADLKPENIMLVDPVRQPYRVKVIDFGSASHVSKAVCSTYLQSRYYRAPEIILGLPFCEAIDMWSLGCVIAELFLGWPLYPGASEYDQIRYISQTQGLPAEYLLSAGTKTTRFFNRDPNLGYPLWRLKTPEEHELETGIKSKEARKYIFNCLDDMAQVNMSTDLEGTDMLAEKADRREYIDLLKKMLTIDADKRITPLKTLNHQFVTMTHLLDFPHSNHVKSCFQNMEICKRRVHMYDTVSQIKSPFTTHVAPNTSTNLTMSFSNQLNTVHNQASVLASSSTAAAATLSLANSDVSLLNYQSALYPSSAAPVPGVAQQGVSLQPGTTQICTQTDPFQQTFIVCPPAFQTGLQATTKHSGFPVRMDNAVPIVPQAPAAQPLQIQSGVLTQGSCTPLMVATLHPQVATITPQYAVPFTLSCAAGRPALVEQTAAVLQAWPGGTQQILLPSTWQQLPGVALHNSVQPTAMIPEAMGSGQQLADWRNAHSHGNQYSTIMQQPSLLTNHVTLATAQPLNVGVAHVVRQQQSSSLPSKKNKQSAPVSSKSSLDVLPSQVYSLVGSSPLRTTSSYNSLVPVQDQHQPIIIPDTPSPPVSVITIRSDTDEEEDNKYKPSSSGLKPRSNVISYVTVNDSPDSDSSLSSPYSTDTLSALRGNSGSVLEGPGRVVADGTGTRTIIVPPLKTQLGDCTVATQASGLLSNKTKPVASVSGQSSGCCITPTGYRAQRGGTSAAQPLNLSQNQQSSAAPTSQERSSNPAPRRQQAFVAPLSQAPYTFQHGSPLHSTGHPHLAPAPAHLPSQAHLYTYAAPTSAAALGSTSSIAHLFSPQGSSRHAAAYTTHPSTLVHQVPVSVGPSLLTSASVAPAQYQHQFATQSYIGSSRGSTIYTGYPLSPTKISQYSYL
T4 sequence (Q9HAZ1 whole entry): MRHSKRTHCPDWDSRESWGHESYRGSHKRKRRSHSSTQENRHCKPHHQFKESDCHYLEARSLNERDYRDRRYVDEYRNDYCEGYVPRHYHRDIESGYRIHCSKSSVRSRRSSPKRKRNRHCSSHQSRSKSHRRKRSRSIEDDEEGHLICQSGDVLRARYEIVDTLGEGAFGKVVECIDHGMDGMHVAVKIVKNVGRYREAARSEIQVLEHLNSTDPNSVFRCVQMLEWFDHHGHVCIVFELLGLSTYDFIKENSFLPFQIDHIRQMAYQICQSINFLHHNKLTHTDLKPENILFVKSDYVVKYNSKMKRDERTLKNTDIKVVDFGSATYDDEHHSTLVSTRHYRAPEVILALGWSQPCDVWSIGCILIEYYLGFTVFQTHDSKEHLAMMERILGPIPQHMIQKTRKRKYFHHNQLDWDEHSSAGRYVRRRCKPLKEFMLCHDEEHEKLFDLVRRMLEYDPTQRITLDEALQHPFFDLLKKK

Turning to `COC(=N)c1nc2ccc3ncnc(Nc4ccc(OC)cc4F)c3c2s1`, the IC50 in test [1], in test [2], in test [3], in test [4], in test [5] and in test [6] was above 3000 nM each time. The molecule further yielded an IC50 in test [7] above 3000 nM.
`O=C1NC(=O)/C(=C\c2c[nH]c(=O)c(-c3ccc(N4CCNCC4)nc3)c2)S1` had an IC50 in test [8] of 74 nM.
Take `Cn1cc(-c2ccc3occ(-c4cccc(-c5ccncc5)c4)c3n2)cn1`: the IC50 in the test on MCF7 turned out to be 4600 nM.
`CC(C)(C)c1ccc(-c2coc3ccc(-c4cn[nH]c4)nc23)cc1`: the half-inhibitory concentration (IC50) in test [9] is 1470 nM; in test [1], above 50000 nM; in [10], 119 nM; in [11], above 50000 nM; in [2] it was 43000 nM; in test [3] it was 18000 nM. Moreover, the IC50 in test [12] is 43000 nM; in test [13], above 50000 nM; in [14], 248 nM; in test [4], 46000 nM; in test [15], above 3000 nM; in test [16], above 3000 nM. For the same molecule, the IC50 in [5] is above 50000 nM; in [17], 476 nM; in [18] it was above 50000 nM; in [6], above 50000 nM; in test [19], 946 nM; in test [20] it was 1430 nM. In addition, the IC50 in [7] is above 50000 nM; in test [21] it was above 3000 nM; in [22] it was above 3000 nM.
Take `CC(C)(C)c1ccc(-c2coc3ccc(-c4cn[nH]n4)nc23)cc1`: the IC50 in test [9] is above 3000 nM; in [1], above 50000 nM; in [10] it was 123 nM; in test [11] it was above 50000 nM; in test [2], above 50000 nM; in [3], above 50000 nM. The IC50 in test [12] was above 50000 nM; in [13], above 50000 nM; in [14], 285 nM; in [4] it was 40000 nM; in [15], above 3000 nM; in test [16] it was above 3000 nM. The concentration for half-maximal inhibition (IC50) in test [5] was 15000 nM; in test [17], 283 nM; in [18], above 50000 nM; in test [6], above 50000 nM; in test [19], above 3000 nM; in test [20] it was above 3000 nM. For the same molecule, the IC50 in test [7] was above 50000 nM; in [21] it was above 3000 nM; in test [22] it was above 3000 nM.
In the case of `Cn1cc(-c2ccc3occ(-c4cccc(-c5cn[nH]c5)c4)c3n2)cn1`, the IC50 with MCF7 was 30000 nM; in test [9], 19 nM; in [10], 102 nM; in test [14], 177 nM; in test [15], 1590 nM; in [16], above 3000 nM. Besides, the IC50 was 164 nM in test [17]; 16 nM in test [19]; 37 nM in test [20]; 139 nM in test [21]; 1300 nM in test [22].
Regarding `CC(C)(C)c1ccc(-c2coc3ccc(-c4cnn(CCN5CCOCC5)c4)nc23)cc1`, the IC50 in test [9], in [10], in [14], in test [15], in [16] and in test [17] was above 3000 nM in each case. Further, the IC50 in [19], in [20], in [21] and in test [22] was above 3000 nM throughout.
With `Cn1cc(-c2cccc(-c3coc4ccc(-c5cnn(C)c5)nc34)c2)cn1`, the IC50 in the test on MCF7 is above 100000 nM; in test [9], 17 nM; in [10], 70 nM; in [14], 209 nM; in test [15], above 3000 nM; in test [16], 771 nM. The IC50 in [17] worked out at 125 nM; in test [19], 18 nM; in [20], 16 nM; in [21], 147 nM; in test [22], 2420 nM.
Take `O=C(Nc1c[nH]nc1-c1nc2cc(CN3CCOCC3)ccc2[nH]1)NC1CC1` [AT-9283]: the IC50 in [11] came to 1100 nM; in test [6], 570 nM.
Consider `COc1cc2c(Oc3ccc(NC(=O)C4(C(=O)Nc5ccc(F)cc5)CC4)cc3F)ccnc2cc1OCCCN1CCOCC1` [FORETINIB], for which the IC50 in [23] and in [24] was 100 nM each time.
With `Cc1[nH]c(/C=C2\C(=O)Nc3ccc(S(=O)(=O)Cc4c(Cl)cccc4Cl)cc32)c(C)c1C(=O)N1CCC[C@@H]1CN1CCCC1` [PHA-665752], the IC50 in test [25], in [26] and in test [24] was 100 nM each time.
`CN(C)C[C@@H]1CCn2cc(c3ccccc32)C2=C(C(=O)NC2=O)c2cn(c3ccccc23)CCO1` [RUBOXISTAURIN] came in with an IC50 in [24] of 100 nM.
